Assay results as given in patent US11919910B2, “Spiropyrrolidine derived antiviral agents” (ENANTA PHARMACEUTICALS, INC., priority 2021, dated 2024).

Assays:
[1] = target: SARS-CoV-2 3CL-protease (Severe acute respiratory syndrome coronavirus 2, UniProt P0DTD1); assay: SARS-CoV-2 3C-like (3CL) protease fluorescence assay (FRET); type: biochemical; conditions: recombinant SARS-CoV-2 3CL-protease 10 nM, 30 min preincubation at RT, substrate 40 μM, run in duplicate
[2] = type: physicochemical
Protocol: Step 7: Compound (3-6) (80 mg, 0.167 mmol) and 4,6,7-trifluoro-1H-indole-2-carboxylic acid (36.0 mg, 0.167 mmol) were dissolved in CH2Cl2 (1.393 ml) and DMF (0.279 ml) at 0° C. 4-methylmorpholine (55.1 μl, 0.501 mmol) and HATU (66.7 mg, 0.176 mmol) were added. The mixture was stirred at 0° C. for 3 h, diluted with DCM, and washed with 5% NaHCO3. The organic layer was washed with brine, dried over Na2SO4, and concentrated in vacuo. The crude was purified by chromatography on silica gel (ISCO 4 g) using ethyl acetate/cyclohexane (0-60%) to give a product as a light yellow oil (3-7) (60 mg, 53%). LC-MS, ES−: 674.2 [M-1]. Step 8: To a solution of (3-7) (60 mg, 0.089 mmol) in DCM (2 ml) at 0° C. was added Dess-Martin periodinane (56.5 mg, 0.133 mmol). The mixture was stirred at 0° C. for 3 h, quenched with 10% Na2S2O3, stirred for another 15 min, and extracted with DCM. The combined organic layers were washed with 10% Na2S2O3, Sat. NaHCO3, brine, dried over Na2SO4, and concentrated.

| SMILES | IC50 [1] [µM] | stability in solution [2] |
| --- | --- | --- |
| CC(C)C[C@@H](C(=O)N1C[C@]2(C[C@H]1C(=O)c1nc3ccccc3s1)C(=O)Nc1ccccc12)N(C)C(=O)c1cc2c(F)cc(F)c(F)c2[nH]1 [Example 3] | > 10 | not stable in solution |
| CC(C)C[C@@H](C(=O)N1C[C@]2(C[C@H]1C(=O)c1nc3ccccc3s1)C(=O)Nc1ccccc12)N(C)C(=O)c1cc2c(F)cc(F)cc2[nH]1 [Example 1] | < 1 | – |
| CC(C)C[C@@H](C(=O)N1C[C@]2(C[C@@H]1C(=O)c1nc3ccccc3s1)C(=O)Nc1ccccc12)N(C)C(=O)c1cc2c(F)cc(F)c(F)c2[nH]1 [Example 4] | > 10 | – |
| CC(C)C[C@@H](C(=O)N1C[C@]2(C[C@H]1C(=O)c1nc3ccccc3s1)C(=O)Nc1ccccc12)N(C)C(=O)[C@H](C)NC(=O)OCc1ccccc1 [Example 6] | < 1 | – |
| CC(C)C[C@@H](C(=O)N1C[C@]2(C[C@@H]1C(=O)c1nc3ccccc3s1)C(=O)Nc1ccccc12)N(C)C(=O)c1cc2c(F)cc(F)cc2[nH]1 [Example 2] | > 10 | – |
| CC(C)C[C@@H](C(=O)N1C[C@]2(C[C@H]1C(=O)c1nc3ccccc3s1)C(=O)Nc1ccccc12)N(C)C(=O)OCc1ccccc1 [Example 5] | > 10 | – |
